Biological target: Lysine--tRNA ligase (Plasmodium falciparum (isolate 3D7), UniProt Q8IDJ8)
Assay: Pf-KRS-1 (Lysyl-RNA Synthetase-1, KRS-1, cytosolic KRS) from Plasmodium falciparum. Inhibitor assay, 384 well plate, luminescence read.
Assay type: functional
Conditions: not given

Sequence of Lysine--tRNA ligase (Q8IDJ8 whole entry): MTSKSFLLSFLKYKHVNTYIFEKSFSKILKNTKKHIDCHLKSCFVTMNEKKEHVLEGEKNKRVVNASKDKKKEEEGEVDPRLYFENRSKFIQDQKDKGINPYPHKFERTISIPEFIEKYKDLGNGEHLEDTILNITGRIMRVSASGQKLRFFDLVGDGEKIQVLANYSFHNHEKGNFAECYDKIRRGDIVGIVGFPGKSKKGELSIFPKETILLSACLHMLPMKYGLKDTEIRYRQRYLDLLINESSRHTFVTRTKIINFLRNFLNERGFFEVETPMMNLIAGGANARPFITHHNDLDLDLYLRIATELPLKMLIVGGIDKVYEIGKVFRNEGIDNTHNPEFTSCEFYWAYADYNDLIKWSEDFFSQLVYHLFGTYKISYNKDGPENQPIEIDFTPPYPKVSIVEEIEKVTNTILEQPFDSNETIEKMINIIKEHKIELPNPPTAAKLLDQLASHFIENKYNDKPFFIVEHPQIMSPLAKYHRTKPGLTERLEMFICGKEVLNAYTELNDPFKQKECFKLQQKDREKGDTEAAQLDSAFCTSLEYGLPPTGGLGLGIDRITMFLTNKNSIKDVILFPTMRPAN

| SMILES | IC50 [µM] |
| --- | --- |
| CC(C)CN1C[C@H]2CCN(C(=O)C3CCCO3)CC[C@H]2S1(=O)=O (stereo not given in full) | > 50.1 |
| COC(=O)c1ccc2ccn(CC3COCCO3)c(=O)c2c1 (stereo not given) | > 50.1 |
| CC(C)SCCn1ccc2[nH]c(=O)c(C#N)cc2c1=O | > 50.1 |
| Cc1nc[nH]c1CN1CCn2nc(CN3Cc4ccccc4C3)cc2C1 | > 50.1 |
| Cc1ccc(C)c2c(O)cc(CN[C@H]3CCCCNC3=O)nc12 | > 50.1 |
| Cc1nc(CN2CCCC(CCc3cccc(C(F)(F)F)c3)C2)co1 (stereo not given) | > 50.1 |
| COc1nccnc1N1CCC2(CC1)[C@H](O)C[C@@H]2OCCN(C)C | > 50.1 |
| Cc1nc(CCC(=O)N2Cc3cnc(-c4ccccc4)nc3C2)n[nH]1 | > 50.1 |
| CCC[C@@H]1CN(Cc2nnc(-c3cccc(F)c3)o2)C[C@H]1NC(C)=O | > 50.1 |
| CC(=O)c1cc(CC(=O)N2CCN(S(=O)(=O)c3ccccc3)CC2)cs1 | > 50.1 |
| CCCc1ccc(CN2CCN(C(=O)C(C)C)[C@@H]3CS(=O)(=O)C[C@@H]32)o1 | > 50.1 |
| c1ccc(CCN2CCCC(Cn3ccnc3)C2)cc1 (stereo not given) | > 50.1 |
| COCCC(=O)N1CCC2(CC1)CC(c1ccccc1)CN(C1CC1)C2 (stereo not given) | > 50.1 |
| CCN1CC(C(=O)N2CCN(CCn3cccc3)CC2)CC1=O (stereo not given) | > 50.1 |
| Cc1cc(C)c2nc(CNC3CCNC3=O)cc(O)c2c1 (stereo not given) | > 50.1 |
| COc1cc(OC)nc(N2CCC3(CC2)OCCCC3O)n1 (stereo not given) | > 50.1 |
| Cc1nc(N(C)CCCc2nccn2C)c2c(C)nn(C)c2n1 | > 50.1 |
| Cc1cc(C)c2nc(CNC3CCCNC3=O)cc(O)c2c1 (stereo not given) | > 50.1 |
| Cc1ccnc(NCCNC(=O)C2CC3(CCNCC3)CN2C)c1 (stereo not given) | > 50.1 |
| COc1cc(C2CC(=O)Nc3c2nc2n3CCCC2)cc(OC)c1O (stereo not given) | > 50.1 |

| SMILES | IC50 [µM] |
| --- | --- |
| Cc1cccc2c1nc(CCO)n2-c1ccc(N)nc1 | > 50.1 |
| CCC(Cn1ccc2[nH]c(=O)c(C#N)cc2c1=O)OC (stereo not given) | > 50.1 |
| CC(C)C1CN(C(=O)c2cc(=O)[nH]c(=O)[nH]2)CCCN1CC1CC1 (stereo not given) | > 50.1 |
| Cc1nnc(CN2CCCC(CCc3ccccc3C(F)(F)F)C2)o1 (stereo not given) | > 50.1 |
| CC(O)CCn1ccc2[nH]c(=O)c(C#N)cc2c1=O (stereo not given) | > 50.1 |
| CSCCC(O)C(=O)N1CCCN(Cc2cccnc2)CC1 (stereo not given) | > 50.1 |
| CSc1cccc(CN(C)C(=O)Nc2nc(C)n(C)n2)c1 | > 50.1 |
| c1cc(-c2cn[nH]c2)ncc1CN1CCCCC1 | > 50.1 |
| CCc1ccc(CN2CCN(C(=O)C(C)C)[C@@H]3CS(=O)(=O)C[C@@H]32)cc1 | > 50.1 |
| COC(=O)c1ccc2ccn(CC3CCCCO3)c(=O)c2c1 (stereo not given) | 38.2 |
| COc1c(F)cc(-c2cn(CCn3c(C)cc(C)nc3=O)nn2)cc1Cl | > 50.1 |
| Cc1cc2ccccc2n1CCC(=O)N1CCC[C@H]1C(N)=O | > 50.1 |
| O=C(C(O)c1ccccc1Cl)N1CCCN(Cc2cccnc2)CC1 (stereo not given) | > 50.1 |
| CC(C)(C)c1cc(CN2CCOC(CCc3ccccc3)C2)n[nH]1 (stereo not given) | > 50.1 |
| CN(C)CCO[C@H]1C[C@@H](O)C12CCN(c1nccc3ccccc13)CC2 | > 50.1 |
| FC(F)(F)CCc1ccnc(NC2CCOC2)n1 (stereo not given) | > 50.1 |
| c1csc(CN2CCCN(c3ncnc4[nH]ccc34)CC2)c1 | > 50.1 |
| Cc1ccc(CS(=O)(=O)NCc2ccco2)cc1 | > 50.1 |
| Cc1cc(C)c2nc(CN[C@H]3CCCNC3)cc(O)c2c1 | > 50.1 |
| Cc1cnn(CCCN2C(=O)CCc3ccccc32)c1 | > 50.1 |

| SMILES | IC50 [µM] |
| --- | --- |
| Cc1ccc(CN2CCN(Cc3ccncc3)[C@@H]3CS(=O)(=O)C[C@@H]32)cc1 | > 50.1 |
| Cc1nc[nH]c1CN1CCn2nc(CN3CC[C@H](F)C3)cc2C1 | > 50.1 |
| N#Cc1cc2c(=O)n(CC(O)C(F)(F)F)ccc2[nH]c1=O (stereo not given) | > 50.1 |
| CN(C)CCn1ccnc1C1CCN(c2cc(N)nc(N)n2)CC1 | > 50.1 |
| CN(C)C(=O)N1C[C@@H]2CC[C@H](C1)N(C/C=C/c1ccc(F)cc1)C2 | > 50.1 |
| NC(=O)c1csc(N2CCCC(c3n[nH]c(=O)n3-c3ccccc3)C2)n1 (stereo not given) | > 50.1 |
| CSCCCN1CCCC(Cn2ccnc2)C1 (stereo not given) | > 50.1 |
| O=C(NCCc1ccco1)Nc1cc(C(F)(F)F)c[nH]c1=O | > 50.1 |
| O=C(c1ccc2c(c1)CCCC2)N1CCCC(n2cncn2)C1 (stereo not given) | > 50.1 |
| O=C(NCc1csc(Br)c1)c1cnccn1 | > 50.1 |
| CCc1n[nH]c(C2CN(Cc3nc(C4CC4)no3)CCO2)n1 (stereo not given) | > 50.1 |
| c1cnnc(N2CCCC(NCc3ccncc3)C2)c1 (stereo not given) | > 50.1 |
| COc1c(C)cnc(CN(C)C(=O)c2cccnc2N(C)C)c1C | > 50.1 |
| Cc1ccc(CN2CCCN(Cc3cscn3)CC2)cc1 | > 50.1 |
| COc1cccc(COCC(=O)N2CCCC(n3cccn3)C2)c1 (stereo not given) | > 50.1 |
| O=C(COCCc1ccccc1)N1CCCC(n2cccn2)C1 (stereo not given) | > 50.1 |
| N#CCc1ccc(OCC(=O)N2CCCC(n3cccn3)C2)cc1 (stereo not given) | > 50.1 |
| Cc1cnn(CC2CCCN2C(=O)c2cccc3c2OCO3)c1 (stereo not given) | > 50.1 |

Biological target: ClpP1P2 (Mycobacterium tuberculosis (strain ATCC 25618 / H37Rv), UniProt P9WPC3+P9WPC5)
Assay: in vitro assay to detect presence of AMC directly proportional to the activity of ClpP1P2. GHDDI collaboration.
Assay type: functional
Conditions: not given

Sequence of ClpP1P2 (P9WPC5 whole entry): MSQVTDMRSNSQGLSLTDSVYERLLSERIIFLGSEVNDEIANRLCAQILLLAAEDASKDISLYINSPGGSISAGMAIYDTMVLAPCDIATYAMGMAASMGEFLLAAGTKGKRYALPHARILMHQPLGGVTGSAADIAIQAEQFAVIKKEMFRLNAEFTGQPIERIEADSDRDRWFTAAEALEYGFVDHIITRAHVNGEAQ
Sequence of ClpP1P2 (P9WPC3 whole entry): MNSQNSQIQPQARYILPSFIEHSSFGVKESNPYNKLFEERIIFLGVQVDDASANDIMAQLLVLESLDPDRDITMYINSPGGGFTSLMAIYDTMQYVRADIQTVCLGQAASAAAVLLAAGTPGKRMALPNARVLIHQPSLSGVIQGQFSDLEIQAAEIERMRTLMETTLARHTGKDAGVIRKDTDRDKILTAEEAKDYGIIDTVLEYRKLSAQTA

| SMILES | IC50 [µM] |
| --- | --- |
| CCC(Cn1ccc2[nH]c(=O)c(C#N)cc2c1=O)OC (stereo not given) | > 100 |
| CC(O)CCn1ccc2[nH]c(=O)c(C#N)cc2c1=O (stereo not given) | > 100 |
| N#Cc1cc2c(=O)n(CC(O)C(F)(F)F)ccc2[nH]c1=O (stereo not given) | > 100 |

Tested on: not listed separately
Assay: microbe, parasite or virus in culture
Conditions: Mycobacterium tuberculosis, 96 h, read-out: pIC50 (converted)

| SMILES | IC50 [µM] |
| --- | --- |
| CC(C)CN1C[C@H]2CCN(C(=O)C3CCCO3)CC[C@H]2S1(=O)=O (stereo not given in full) | > 50.1 |
| Cc1nc(CN2CCCC(CCc3cccc(C(F)(F)F)c3)C2)co1 (stereo not given) | 41.8 |

Tested on: not listed separately
Assay: microbe, parasite or virus in culture
Conditions: Mycobacterium tuberculosis, 72 h, read-out: pIC50 (converted)

| SMILES | IC50 [µM] |
| --- | --- |
| CC(C)CN1C[C@H]2CCN(C(=O)C3CCCO3)CC[C@H]2S1(=O)=O (stereo not given in full) | > 50.1 |
| Cc1nc(CN2CCCC(CCc3cccc(C(F)(F)F)c3)C2)co1 (stereo not given) | 33.3 |

Reference: ChEMBL document CHEMBL3988442, “University of Dundee, Small-Polar-MMV Screening Library” (2021)
